The results in this text go back to patent US20120088759A1, “THIAZOLIDIN-4-ONE AND [1,3]-THIAZINAN-4-ONE COMPOUNDS AS OREXIN RECEPTOR ANTAGONISTS” (priority 2009, published 2012).

The target in one experiment is T1, human orexin-2 receptor (Homo sapiens, UniProt O43614).
T1 construct: expressed in transfected cells; host or cells: CHO (Chinese hamster ovary) cells, kept under G418
T1 sequence (O43614 1-444): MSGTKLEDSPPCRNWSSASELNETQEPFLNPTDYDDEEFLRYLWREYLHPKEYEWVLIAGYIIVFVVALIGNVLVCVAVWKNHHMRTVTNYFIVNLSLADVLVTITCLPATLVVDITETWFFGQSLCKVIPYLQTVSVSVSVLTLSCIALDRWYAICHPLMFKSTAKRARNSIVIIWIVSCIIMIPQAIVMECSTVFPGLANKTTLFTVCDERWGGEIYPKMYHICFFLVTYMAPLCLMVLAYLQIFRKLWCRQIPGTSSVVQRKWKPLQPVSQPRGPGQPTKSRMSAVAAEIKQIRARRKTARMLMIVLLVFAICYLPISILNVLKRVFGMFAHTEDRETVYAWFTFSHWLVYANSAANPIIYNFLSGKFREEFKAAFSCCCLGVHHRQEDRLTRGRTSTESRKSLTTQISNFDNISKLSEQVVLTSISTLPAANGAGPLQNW
Put plainly: FLIPR intracellular calcium assay, orexin receptor antagonistic activity (OX2). To be noted: CHO cells expressing human orexin-2 receptor; 3 nM orexin-A; normalized to on-plate reference; *n = geometric mean from n values. The experiment is classed as cell-based. How it is done:
(§1) The orexin receptor antagonistic activity of the compounds of formula (I) is determined in accordance with the following experimental method.
(§2) Chinese hamster ovary (CHO) cells expressing the human orexin-1 receptor and the human orexin-2 receptor, respectively, are grown in culture medium (Ham F-12 with L-Glutamine) containing 300 μg/ml G418, 100 U/ml penicillin, 100 μg/ml streptomycin and 10% heat inactivated fetal calf serum (FCS). The cells are seeded at 20′000 cells/well into 384-well black clear bottom sterile plates (Greiner). The seeded plates are incubated overnight at 37° C. in 5% CO2.
(§3) Human orexin-A as an agonist is prepared as 1 mM stock solution in MeOH:water (1:1), diluted in HBSS containing 0.1% bovine serum albumin (BSA), NaHCO3: 0.375 g/l and 20 mM HEPES for use in the assay at a final concentration of 3 nM.
(§4) Antagonists are prepared as 10 mM stock solution in DMSO, then diluted in 384-well plates using DMSO followed by a transfer of the dilutions into in HBSS containing 0.1% bovine serum albumin (BSA), NaHCO3: 0.375 g/l and 20 mM HEPES. On the day of the assay, 50 μl of staining buffer (HBSS containing 1% FCS, 20 mM HEPES, NaHCO3: 0.375 g/l, 5 mM probenecid (Sigma) and 3 μM of the fluorescent calcium indicator fluo-4 AM (1 mM stock solution in DMSO, containing 10% pluronic) is added to each well. The 384-well cell-plates are incubated for 50 min at 37° C. in 5% CO2 followed by equilibration at rt for 30-120 min before measurement.
(§5) Within the Fluorescent Imaging Plate Reader (FLIPR Tetra, Molecular Devices), antagonists are added to the plate in a volume of 10 μl/well, incubated for 10 min and finally 10 μl/well of agonist is added. Fluorescence is measured for each well at 1 second intervals, and the height of each fluorescence peak is compared to the height of the fluorescence peak induced by 3 nM orexin-A with vehicle in place of antagonist. For each antagonist, the IC50 value (the concentration of compound needed to inhibit 50% of the agonistic response) is determined and normalized using the obtained IC50 value of a on-plate reference compound. Optimized conditions were achieved by adjustment of pipetting speed and cell splitting regime. The calculated IC50 values of the compounds may fluctuate depending on the daily cellular assay performance. Fluctuations of this kind are known to those skilled in the art.
(A change in cytosolic calcium serves as a functional read-out for many receptors and channels.)

The next experiment has as its target T2, human orexin-1 receptor (Homo sapiens, UniProt O43613).
T2 construct: expressed in transfected cells; host or cells: CHO (Chinese hamster ovary) cells, kept under G418
T2 sequence (O43613 1-425): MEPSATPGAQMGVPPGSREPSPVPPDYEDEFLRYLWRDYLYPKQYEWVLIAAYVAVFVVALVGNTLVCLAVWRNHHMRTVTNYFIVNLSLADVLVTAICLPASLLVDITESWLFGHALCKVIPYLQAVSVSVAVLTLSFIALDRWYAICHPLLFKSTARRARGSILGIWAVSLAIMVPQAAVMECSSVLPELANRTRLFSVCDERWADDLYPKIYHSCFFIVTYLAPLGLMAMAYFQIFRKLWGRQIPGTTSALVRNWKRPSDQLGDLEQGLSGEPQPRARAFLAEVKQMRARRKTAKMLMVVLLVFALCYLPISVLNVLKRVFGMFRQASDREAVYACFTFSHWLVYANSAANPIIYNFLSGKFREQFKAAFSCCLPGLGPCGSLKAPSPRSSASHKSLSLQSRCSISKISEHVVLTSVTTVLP
Briefly: FLIPR intracellular calcium assay, orexin receptor antagonistic activity (OX1). Type of experiment: cell-based. As to conditions: CHO cells expressing human orexin-1 receptor; 3 nM orexin-A; normalized to on-plate reference; *n = geometric mean from n values. How it is done:
as §1, §2, §3, §4, §5

For orientation: IC50 means the concentration that gives 50% inhibition. As for `COc1cccc(Oc2ccc(CN3C(=O)CSC3c3c(OC)cccc3OC)cc2)n1` (centres unmarked) [Example 282, 2-(2,6-Dimethoxy-phenyl)-3-[4-(6-methoxy-pyridin-2-yloxy)-benzyl]-thiazolidin-4-one], the concentration for half-maximal inhibition (IC50) at human orexin-2 receptor was 127 nM; at human orexin-1 receptor it was 1950 nM.
The like results for `COc1ccnc(OC)c1C1SCC(=O)N1Cc1ccc(OC(F)(F)F)cc1` (centres unmarked) [Example 25, 2-(2,4-Dimethoxy-pyridin-3-yl)-3-(4-trifluoromethoxy-benzyl)-thiazolidin-4-one] were, in that order, 16 nM and 561 nM.
The like results for `COc1cncc(OC)c1C1SCC(=O)N1Cc1ccc(OC(F)(F)F)cc1` (centres unmarked) [Example 28, 2-(3,5-Dimethoxy-pyridin-4-yl)-3-(4-trifluoromethoxy-benzyl)-thiazolidin-4-one] were, in that order, 16 nM and 208 nM.
For `CCOc1ccc(CN2C(=O)CSC2c2c(OC)ccc3c(C)noc23)cc1` (centres unmarked) [Example 19, 3-(4-Ethoxy-benzyl)-2-(6-methoxy-3-methyl-benzo[d]isoxazol-7-yl)-thiazolidin-4-one] the same measures were 153 nM and 8120 nM.
Regarding `COc1cccc(OC)c1C1SCC(=O)N1Cc1ccc2ccccc2n1` (centres unmarked) [Example 27, 2-(2,6-Dimethoxy-phenyl)-3-quinolin-2-ylmethyl-thiazolidin-4-one], the figures for the IC50 on human orexin-2 receptor and on human orexin-1 receptor were 18 nM and 154 nM, respectively.
Regarding `CCOc1ccc(CN2C(=O)CS(=O)(=O)C2c2c(OC)cccc2OC)cc1` (centres unmarked) [Example 290, 2-(2,6-Dimethoxy-phenyl)-3-(4-ethoxy-benzyl)-1,1-dioxo-thiazolidin-4-one], the figures for the IC50 at human orexin-2 receptor and at human orexin-1 receptor were 21 nM and 375 nM, respectively.
For `CCOc1ccc(CN2C(=O)CSC2c2c(OC)cncc2OC)cc1` (centres unmarked) [Example 29, 2-(3,5-Dimethoxy-pyridin-4-yl)-3-(4-ethoxy-benzyl)-thiazolidin-4-one] the same measures were 36 nM and 1050 nM.
`COc1ccc2c(C)noc2c1C1SCC(=O)N1Cc1ccc(OC(F)(F)F)cc1` (centres unmarked) [Example 22, 2-(6-Methoxy-3-methyl-benzo[d]isoxazol-7-yl)-3-(4-trifluoromethoxy-benzyl)-thiazolidin-4-one]: the concentration for half-maximal inhibition (IC50) on human orexin-2 receptor was determined as 19 nM; at human orexin-1 receptor, 2360 nM.
For `COc1cc(F)cc(OC)c1C1SCC(=O)N1Cc1ccc(OC(F)(F)F)cc1` (centres unmarked) [Example 33, 2-(4-Fluoro-2,6-dimethoxy-phenyl)-3-(4-trifluoromethoxy-benzyl)-thiazolidin-4-one] the same measures were 8 nM and 105 nM.
For `CCOc1ccc(CN2C(=O)CSC2c2c(OC)ccnc2OC)cc1` (centres unmarked) [Example 26, 2-(2,4-Dimethoxy-pyridin-3-yl)-3-(4-ethoxy-benzyl)-thiazolidin-4-one] the same measures were 126 nM and 4300 nM.
The like results for `COc1cccc(OC)c1C1SCC(=O)N1Cc1ccc(Oc2ccccn2)cc1` (centres unmarked) [Example 277, 2-(2,6-Dimethoxy-phenyl)-3-[4-(pyridin-2-yloxy)-benzyl]-thiazolidin-4-one] were, in that order, 8 nM and 411 nM.
Regarding `COc1cccc(OCCO)c1C1SCC(=O)N1Cc1ccc(OC(F)(F)F)cc1` (centres unmarked) [Example 267, 2-[2-(2-Hydroxy-ethoxy)-6-methoxy-phenyl]-3-(4-trifluoromethoxy-benzyl)-thiazolidin-4-one], the results for the IC50 on human orexin-2 receptor and at human orexin-1 receptor were 24 nM and 263 nM, respectively.
The like results for `COc1cccc(OC)c1C1N(Cc2ccc(OC(C)C)cc2)C(=O)CS1(=O)=O` (centres unmarked) [Example 289, 2-(2,6-Dimethoxy-phenyl)-3-(4-isopropoxy-benzyl)-1,1-dioxo-thiazolidin-4-one] were, in that order, 16 nM and 181 nM.
The like results for “2-[2-(2-Hydroxy-ethoxy)-6-methoxy-phenyl]-3-(4-isopropoxy-benzyl)-thiazolidin-4-on [Example 269]” were, in that order, 25 nM and 2060 nM.
Regarding `CCOc1ccccc1C1SCC(=O)N1Cc1ccc2c(c1)OCCO2` (centres unmarked) [Example 72, 3-(2,3-Dihydro-benzo[1,4]dioxin-6-ylmethyl)-2-(2-ethoxy-phenyl)-thiazolidin-4-one], the IC50 was 115 nM on human orexin-2 receptor and 778 nM at human orexin-1 receptor.
The like results for `COc1cccc(OC)c1C1SCC(=O)N1Cc1ccc(-c2ccccc2)cc1` (centres unmarked) [Example 203, 3-Biphenyl-4-ylmethyl-2-(2,6-dimethoxy-phenyl)-thiazolidin-4-one] were, in that order, 125 nM and 1830 nM.
Regarding `COc1cccc(OC)c1C1SCC(=O)N1Cc1ccc(Oc2cccc(C)n2)cc1` (centres unmarked) [Example 283, 2-(2,6-Dimethoxy-phenyl)-3-[4-(6-methyl-pyridin-2-yloxy)-benzyl]-thiazolidin-4-one], the half-inhibitory concentration (IC50) turned out to be 51 nM on human orexin-2 receptor and 942 nM at human orexin-1 receptor.
The like results for `COc1cc(C)cc(OC)c1C1SC(C)C(=O)N1Cc1ccc(OC(F)(F)F)cc1` (centres unmarked) [Example 35, 2-(2,6-Dimethoxy-4-methyl-phenyl)-5-methyl-3-(4-trifluoromethoxy-benzyl)-thiazolidin-4-one] were, in that order, 130 nM and 170 nM.
For `CCOc1ccccc1CN1C(=O)CSC1c1c(OC)cccc1OC` (centres unmarked) [Example 101, 2-(2,6-Dimethoxy-phenyl)-3-(2-ethoxy-benzyl)-thiazolidin-4-one] the same measures were 51 nM and 488 nM.
For `COc1cccc(OC)c1C1SCC(=O)N1Cc1ccc(Oc2cncnc2)cc1` (centres unmarked) [Example 276, 2-(2,6-Dimethoxy-phenyl)-3-[4-(pyrimidin-5-yloxy)-benzyl]-thiazolidin-4-one] the same measures were 121 nM and 1590 nM.
For the molecule `COc1ccc2nc(C)oc2c1C1SCC(=O)N1Cc1ccc(OC(F)(F)F)cc1` (centres unmarked) [Example 23, 2-(6-Methoxy-2-methyl-benzooxazol-7-yl)-3-(4-trifluoromethoxy-benzyl)-thiazolidin-4-one], the 50% inhibitory concentration (IC50) amounted to 28 nM at human orexin-2 receptor and 204 nM at human orexin-1 receptor.
For `COc1cccc(OC)c1C1SC(C)C(=O)N1Cc1ccc2ccccc2c1` (centres unmarked) [Example 14, 2-(2,6-Dimethoxy-phenyl)-5-methyl-3-naphthalen-2-ylmethyl-thiazolidin-4-one] the same measures were 44 nM and 31 nM.
For `CCOc1ccc(CN2C(=O)CSC2c2c(OC)cccc2OC)cc1` (centres unmarked) [Example 6, 2-(2,6-Dimethoxy-phenyl)-3-(4-ethoxy-benzyl)-thiazolidin-4-one] the same measures were 24 nM and 140 nM.
For `COc1ccc2cc(CN3C(=O)CSC3c3c(OC)cccc3OC)ccc2c1` (centres unmarked) [Example 32, 2-(2,6-Dimethoxy-phenyl)-3-(6-methoxy-naphthalen-2-ylmethyl)-thiazolidin-4-one] the same measures were 6 nM and 15 nM.
Take `CCOc1ccccc1C1SCCC(=O)N1Cc1c(OC)cccc1OC` (centres unmarked) [Example 43, 3-(2,6-Dimethoxy-benzyl)-2-(2-ethoxy-phenyl)-[1,3]thiazinan-4-one]: the 50% inhibitory concentration (IC50) on human orexin-2 receptor came to 70 nM; at human orexin-1 receptor, 793 nM.
